Test results reported in ChEMBL document CHEMBL1150071, “Konbamidin, a new indole alkaloid from the Okinawan marine sponge Ircinia sp” (J Nat Prod, 1994).
In brackets after ≈: the same amount, converted by molar mass.

Test system: HeLa
Assay: Cytotoxicity against human HeLa cells
Assay type: functional, cell-based

`O=C(O)CN[C@H](Cc1c[nH]c2ccccc12)C(=O)O` [KONBAMIDIN] showed an IC50 of 5.4 µg/mL (≈ 20.6 µM).
